# Test results published in ChEMBL document CHEMBL3808281, “Investigation of the Structure-Activity Relationships of Aza-A-Ring Indenoisoquinoline Topoisomerase I Poisons” (J Med Chem, 2016).
# Assays:
# [1] = molecular target: T1, DNA topoisomerase 1 (Homo sapiens) (UniProt P11387); assay: Activity at recombinant top1 (unknown origin) assessed as DNA cleavage using 3'-[32P]-labeled 117-bp DNA as substrate at 0.1 to 100 uM after 20 mins by SDS-PAGE
# T1 sequence (whole entry): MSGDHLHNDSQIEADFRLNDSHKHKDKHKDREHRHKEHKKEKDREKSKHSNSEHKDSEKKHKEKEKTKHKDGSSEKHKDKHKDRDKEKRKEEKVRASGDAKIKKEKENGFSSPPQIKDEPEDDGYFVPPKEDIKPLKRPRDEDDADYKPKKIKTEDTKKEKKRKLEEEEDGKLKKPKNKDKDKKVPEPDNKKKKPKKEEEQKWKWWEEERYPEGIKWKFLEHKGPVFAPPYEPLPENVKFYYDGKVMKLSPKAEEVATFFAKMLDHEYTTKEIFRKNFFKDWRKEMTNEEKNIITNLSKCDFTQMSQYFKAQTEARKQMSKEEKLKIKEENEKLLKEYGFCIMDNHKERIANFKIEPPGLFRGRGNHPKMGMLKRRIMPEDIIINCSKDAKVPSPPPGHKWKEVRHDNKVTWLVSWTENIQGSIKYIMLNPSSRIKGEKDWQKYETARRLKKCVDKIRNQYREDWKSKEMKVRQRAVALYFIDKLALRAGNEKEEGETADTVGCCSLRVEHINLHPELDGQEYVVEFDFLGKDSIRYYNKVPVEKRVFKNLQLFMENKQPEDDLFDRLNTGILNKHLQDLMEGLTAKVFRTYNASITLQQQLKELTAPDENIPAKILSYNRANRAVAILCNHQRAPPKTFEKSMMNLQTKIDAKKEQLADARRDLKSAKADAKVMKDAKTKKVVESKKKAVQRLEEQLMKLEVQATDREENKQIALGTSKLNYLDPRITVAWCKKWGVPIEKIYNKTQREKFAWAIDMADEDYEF
# [2] = molecular target: T2, Tyrosyl-DNA phosphodiesterase 2 (Homo sapiens, UniProt O95551)
# T2 sequence (O95551 whole entry): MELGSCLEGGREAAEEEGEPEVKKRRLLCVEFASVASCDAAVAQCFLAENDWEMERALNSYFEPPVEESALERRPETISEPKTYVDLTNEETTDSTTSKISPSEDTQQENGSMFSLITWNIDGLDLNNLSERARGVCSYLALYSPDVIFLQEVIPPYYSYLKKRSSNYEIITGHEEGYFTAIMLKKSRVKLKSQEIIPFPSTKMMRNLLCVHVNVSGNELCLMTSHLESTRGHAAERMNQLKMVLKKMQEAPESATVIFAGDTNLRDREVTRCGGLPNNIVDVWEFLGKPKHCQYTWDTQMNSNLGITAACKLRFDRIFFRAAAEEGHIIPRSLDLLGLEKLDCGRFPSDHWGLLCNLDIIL
# Description: Inhibition of human recombinant TDP2 using 19-mer single stranded DNA containing 5'-phosphotyrosine as substrate after 15 mins by PAGE
# [3] = test system: MCF7; assay: Antiproliferative activity against human MCF7 cells after 48 hrs; assay type: functional; conditions: MCF7, 48 h
# [4] = Antiproliferative activity against human OVCAR3 cells after 48 hrs; assay type: functional; conditions: OVCAR-3, 48 h
# [5] = Antiproliferative activity against human HCT116 cells after 48 hrs; assay type: functional; conditions: HCT-116, 48 h
# [6] = Antiproliferative activity against human DU145 cells after 48 hrs; assay type: functional; conditions: DU-145, 48 h
# [7] = molecular target: Tyrosyl-DNA phosphodiesterase 1 (Homo sapiens, UniProt Q9NUW8)
# Description: Inhibition of recombinant TDP1 (unknown origin) using single stranded 5'-[32P]-labeled DNA containing 3'-phosphotyrosine as substrate after 15 mins by PAGE
# [8] = test system: SN12C; assay: Antiproliferative activity against human SN12C cells after 48 hrs; assay type: functional
# [9] = Antiproliferative activity against human HOP62 cells after 48 hrs; assay type: functional; conditions: HOP-62, 48 h
# [10] = Cytotoxicity against human NCI60 cells assessed as cell growth at 10 uM after 48 hrs; assay type: functional; conditions: NCI60, 48 h, read-out: Activity
# [11] = Antiproliferative activity against human UACC62 cells after 48 hrs; assay type: functional; conditions: UACC-62, 48 h
# [12] = Antiproliferative activity against human SF539 cells after 48 hrs; assay type: functional; conditions: SF-539, 48 h
# [13] = Antiproliferative activity against human NCI60 cells after 48 hrs; assay type: functional; conditions: NCI60, 48 h
# Tyrosyl-DNA phosphodiesterase 1, sequence (Q9NUW8 whole entry): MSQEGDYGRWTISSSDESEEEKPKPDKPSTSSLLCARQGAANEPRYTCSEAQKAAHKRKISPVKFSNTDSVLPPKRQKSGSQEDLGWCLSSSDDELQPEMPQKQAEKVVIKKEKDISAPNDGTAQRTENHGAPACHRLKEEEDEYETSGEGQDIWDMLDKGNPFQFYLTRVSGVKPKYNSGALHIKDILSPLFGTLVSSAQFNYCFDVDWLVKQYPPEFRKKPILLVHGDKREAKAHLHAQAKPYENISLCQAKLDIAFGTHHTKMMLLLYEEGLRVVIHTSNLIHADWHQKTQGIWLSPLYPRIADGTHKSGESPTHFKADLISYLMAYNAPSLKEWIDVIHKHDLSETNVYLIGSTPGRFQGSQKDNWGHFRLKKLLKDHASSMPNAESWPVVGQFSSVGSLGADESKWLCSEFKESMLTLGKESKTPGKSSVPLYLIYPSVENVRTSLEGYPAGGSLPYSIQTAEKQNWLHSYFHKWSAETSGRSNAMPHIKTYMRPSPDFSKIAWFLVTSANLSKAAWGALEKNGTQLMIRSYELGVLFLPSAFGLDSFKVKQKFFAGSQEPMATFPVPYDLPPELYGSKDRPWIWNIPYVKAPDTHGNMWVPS
smiles,measurement,setting,value
CN(C)CCCn1c2c(c3ccccc3c1=O)C(=O)c1ccccc1-2,Activity,[1],75%
NCCCn1c2c(c3cnccc3c1=O)C(=O)c1ccccc1-2,Activity,[1],50%
same,IC50,[2],111000 nM
CN(C)CCCn1c2c(c3cccnc3c1=O)C(=O)c1ccccc1-2,Activity,[1],75%
same,GI50,[3],363 nM
same,GI50,[4],2400 nM
same,GI50,[5],437 nM
same,GI50,[6],1910 nM
same,IC50,[7],111000 nM
same,GI50,[8],1120 nM
same,GI50,[9],1260 nM
same,growth at 10 µM,[10],5.45%
same,GI50,[11],1290 nM
same,GI50,[12],851 nM
O=C1c2ccccc2-c2c1c1ccccc1c(=O)n2CCCn1ccnc1,Activity,[1],100%
same,GI50,[13],1860 nM
CN(C)CCCn1c2c(c3ccncc3c1=O)C(=O)c1ccccc1-2,GI50,[3],331 nM
same,GI50,[4],2000 nM
same,GI50,[5],380 nM
same,GI50,[6],977 nM
same,GI50,[8],955 nM
same,GI50,[9],871 nM
same,GI50,[11],1230 nM
O=C1c2ccccc2-c2c1c1ncccc1c(=O)n2C[C@H](O)CO,Activity,[1],20%
O=C1c2ccccc2-c2c1c1cccnc1c(=O)n2C[C@H](O)CO,Activity,[1],20%
same,growth at 10 µM,[10],61.7%
NCCCn1c2c(c3ccncc3c1=O)C(=O)c1ccccc1-2,Activity,[1],0%
same,IC50,[2],111000 nM
O=C1c2ccccc2-c2c1c1cccnc1c(=O)n2CCCn1ccnc1,Activity,[1],75%
same,growth at 10 µM,[10],49.6%
O=C1c2ccccc2-c2c1c1cccnc1c(=O)n2CCCN1CCOCC1,Activity,[1],75%
same,growth at 10 µM,[10],42.9%
O=C1c2ccccc2-c2c1c1ccncc1c(=O)n2C[C@H](O)CO,Activity,[1],50%
same,IC50,[7],> 111000 nM
same,IC50,[2],> 111000 nM
O=C1c2ccccc2-c2c1c1ncccc1c(=O)n2CCCn1ccnc1,Activity,[1],50%
same,growth at 10 µM,[10],83.6%
O=C1c2ccccc2-c2c1c1ncccc1c(=O)n2CCCN1CCOCC1,Activity,[1],50%
same,growth at 10 µM,[10],87.9%
CN(C)CCCn1c2c(c3cnccc3c1=O)C(=O)c1ccccc1-2,Activity,[1],50%
same,GI50,[3],245 nM
same,GI50,[4],1100 nM
same,GI50,[5],245 nM
same,GI50,[6],490 nM
same,GI50,[8],288 nM
same,GI50,[9],398 nM
same,growth at 10 µM,[10],-8.83%
same,GI50,[11],309 nM
same,GI50,[12],380 nM
O=C1c2ccccc2-c2c1c1cnccc1c(=O)n2CCCN1CCOCC1,Activity,[1],75%
CN(C)CCCn1c2c(c3ncccc3c1=O)C(=O)c1ccccc1-2,Activity,[1],50%
same,growth at 10 µM,[10],44.4%
O=C1c2ccccc2-c2c1c1ccccc1c(=O)n2CCCN1CCOCC1,Activity,[1],50%
same,GI50,[13],15100 nM
O=C1c2ccccc2-c2c1c1ccncc1c(=O)n2CCCn1ccnc1,growth at 10 µM,[10],47.5%
NCCCn1c2c(c3ccccc3c1=O)C(=O)c1ccccc1-2,Activity,[1],75%
same,GI50,[13],320 nM
O=C1c2ccccc2-c2c1c1ccccc1c(=O)n2C[C@H](O)CO,Activity,[1],75%
same,GI50,[13],8710 nM
O=C1c2ccccc2-c2c1c1cnccc1c(=O)n2C[C@H](O)CO,Activity,[1],20%
same,growth at 10 µM,[10],85.5%
CC[C@@]1(O)C(=O)OCc2c1cc1n(c2=O)Cc2cc3ccccc3nc2-1 [CAMPTOTHECIN],GI50,[4],220 nM
NCCCn1c2c(c3ncccc3c1=O)C(=O)c1ccccc1-2,Activity,[1],50%
O=C1c2ccccc2-c2c1c1cnccc1c(=O)n2CCCn1ccnc1,Activity,[1],50%
same,growth at 10 µM,[10],67.8%
NCCCn1c2c(c3cccnc3c1=O)C(=O)c1ccccc1-2,Activity,[1],50%
same,GI50,[3],417 nM
same,GI50,[4],2290 nM
same,GI50,[5],537 nM
same,GI50,[6],1910 nM
same,GI50,[8],1120 nM
same,GI50,[9],1450 nM
same,growth at 10 µM,[10],12.2%
same,GI50,[11],1350 nM
same,GI50,[12],1380 nM
